Laboratory results: patent US20230391739A1, “ARYL DERIVATIVES FOR TREATING TRPM3 MEDIATED DISORDERS” (Katholieke Universiteit Leuven, priority 2020, published 2023)

target: T1, mouse TRPM3α2 (mTRPM3) ion channel (Mus musculus, UniProt J9SQF3); assay: TRPM3 ion channel driven Ca2+ uptake, Fluo-4 AM assay, PS-stimulated (mTRPM3); assay type: cell-based; details: TRPM3 overexpressing flip-in HEK293 cells stimulated with Pregnenolone sulfate (PS) 50 μM, activity ranges A, B, C
T1 construct: expressed in transfected cells; host or cells: flip-in HEK293
T1 sequence (J9SQF3 1-1709 isoform J9SQF3-12): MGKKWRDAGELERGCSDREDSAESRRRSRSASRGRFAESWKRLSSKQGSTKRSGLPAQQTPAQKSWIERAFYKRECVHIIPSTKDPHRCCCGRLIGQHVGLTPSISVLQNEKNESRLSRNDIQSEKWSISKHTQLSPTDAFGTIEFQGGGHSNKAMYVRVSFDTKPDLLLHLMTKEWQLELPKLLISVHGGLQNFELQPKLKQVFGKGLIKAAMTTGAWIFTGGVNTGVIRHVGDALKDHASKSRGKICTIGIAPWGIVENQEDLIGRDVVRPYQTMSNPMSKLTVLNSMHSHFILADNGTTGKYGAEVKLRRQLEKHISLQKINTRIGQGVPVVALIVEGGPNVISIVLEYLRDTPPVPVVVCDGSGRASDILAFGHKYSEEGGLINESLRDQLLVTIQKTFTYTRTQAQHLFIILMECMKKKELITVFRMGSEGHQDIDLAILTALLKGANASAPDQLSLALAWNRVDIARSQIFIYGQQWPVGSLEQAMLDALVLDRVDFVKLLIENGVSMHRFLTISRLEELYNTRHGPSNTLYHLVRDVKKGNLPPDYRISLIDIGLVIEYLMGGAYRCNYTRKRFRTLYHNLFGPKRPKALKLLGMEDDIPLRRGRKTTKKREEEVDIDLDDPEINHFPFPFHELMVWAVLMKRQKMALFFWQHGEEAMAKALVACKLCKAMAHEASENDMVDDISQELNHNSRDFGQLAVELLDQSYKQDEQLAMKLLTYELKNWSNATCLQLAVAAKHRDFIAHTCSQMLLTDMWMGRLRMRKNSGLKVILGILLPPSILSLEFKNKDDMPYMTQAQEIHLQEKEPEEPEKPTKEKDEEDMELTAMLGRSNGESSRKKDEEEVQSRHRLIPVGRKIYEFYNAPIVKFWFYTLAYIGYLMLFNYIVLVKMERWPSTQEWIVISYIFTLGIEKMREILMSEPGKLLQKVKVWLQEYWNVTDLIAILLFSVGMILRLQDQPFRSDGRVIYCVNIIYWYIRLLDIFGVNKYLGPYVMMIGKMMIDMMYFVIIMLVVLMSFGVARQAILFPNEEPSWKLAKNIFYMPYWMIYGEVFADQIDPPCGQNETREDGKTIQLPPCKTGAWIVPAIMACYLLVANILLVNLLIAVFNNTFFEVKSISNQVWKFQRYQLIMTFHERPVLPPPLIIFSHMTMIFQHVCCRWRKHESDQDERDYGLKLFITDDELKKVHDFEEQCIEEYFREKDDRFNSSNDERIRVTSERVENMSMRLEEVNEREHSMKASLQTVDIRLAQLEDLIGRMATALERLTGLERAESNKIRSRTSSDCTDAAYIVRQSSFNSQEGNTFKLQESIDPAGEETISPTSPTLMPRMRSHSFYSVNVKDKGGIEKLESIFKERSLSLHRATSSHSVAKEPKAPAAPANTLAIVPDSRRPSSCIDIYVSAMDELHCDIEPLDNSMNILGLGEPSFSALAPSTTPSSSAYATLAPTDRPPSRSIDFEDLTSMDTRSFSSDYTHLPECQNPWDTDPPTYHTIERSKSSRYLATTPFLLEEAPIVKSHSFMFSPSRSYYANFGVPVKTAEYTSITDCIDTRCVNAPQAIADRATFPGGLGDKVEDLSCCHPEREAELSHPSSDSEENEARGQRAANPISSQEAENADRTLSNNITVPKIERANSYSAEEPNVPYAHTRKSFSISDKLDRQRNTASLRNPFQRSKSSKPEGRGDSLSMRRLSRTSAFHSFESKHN
Outline: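 Flp-In HEK293 cells overexpressing mTRPM3α2 were added, in Ca²⁺-free Krebs, to wells already holding compound and 50 μM pregnenolone sulfate in Ca²⁺-containing Krebs. Fluo-4 AM fluorescence (ex 485/em 535 nm) was read immediately. Percent inhibition was computed from RFU relative to PS/vehicle wells and a positive-control inhibitor.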

SMILES	IC50
Cc1oc2ccc(OCc3ccccc3F)cc2c1C(=O)N[C@@H]1COC[C@H]1O (single isomer, unassigned) [Cpd 330-En 1]	< 1000 nM
Cc1oc2ccc(OCc3ccccc3)cc2c1C(=O)NC1CCNC(C)C1 (racemic) [Cpd 115, rac-5-(benzyloxy)-2-methyl-N-(cis-2-methylpiperidin-4-yl)benzofuran-3-carboxamide]	< 1000 nM
Cc1oc2ccc(OCc3ccccc3)cc2c1C(=O)NC1CCNCC1(F)F (stereo not shown) [Cpd 173, 5-(benzyloxy)-N-(3,3-difluoropiperidin-4-yl)-2-methylbenzofuran-3-carboxamide]	< 1000 nM
Cc1oc2ccc(OCc3ccccc3)cc2c1C(=O)NC1CC(O)C1 (stereo not shown) [Cpd 052, 5-(benzyloxy)-N-(3-hydroxycyclobutyl)-2-methylbenzofuran-3-carboxamide]	< 1000 nM
Cc1oc2ccc(OCc3ccccc3)cc2c1C(=O)NC1CNCCC1F (single isomer, unassigned) [Cpd 130-Dia 2]	< 1000 nM
Cc1oc2ccc(OCc3ccccc3F)cc2c1C(=O)NC1(CO)CCNC1=O (single isomer, unassigned) [Cpd 334-En 2]	< 1000 nM
COc1cccc(COc2ccc3oc(C)c(C(=O)N[C@H]4CCNC4)c3c2)c1 [Cpd 127, (S)-5-((3-methoxybenzyl)oxy)-2-methyl-N-(pyrrolidin-3-yl)benzofuran-3-carboxamide]	< 1000 nM

Now from value to compound:

IC50	SMILES
< 1000 nM	Cc1oc2ccc(OCc3cccc(F)c3F)cc2c1C(=O)NC1CCNCC1(F)F (stereo not shown) [Cpd 227, 5-((2,3-difluorobenzyl)oxy)-N-(3,3-difluoropiperidin-4-yl)-2-methylbenzofuran-3-carboxamide]
< 1000 nM	Cc1oc2ccc(OCc3ccccc3F)cc2c1C(=O)NC(CO)C(N)=O (single isomer, unassigned) [Cpd 314-En 2]
< 1000 nM	Cc1oc2ccc(OCc3ccccc3C(F)(F)F)cc2c1C(=O)N[C@H]1CCNC1 [Cpd 203, (S)-2-methyl-N-(pyrrolidin-3-yl)-5-((2-(trifluoromethyl)benzyl)oxy)benzofuran-3-carboxamide]
< 1000 nM	Cc1oc2ccc(OCc3ccccc3)cc2c1C(=O)NC1CNCCC1F (single isomer, unassigned) [Cpd 130-Dia 1]
< 1000 nM	Cc1oc2ccc(OC(C)c3ccccc3)cc2c1C(=O)NC1(CO)CCOCC1 (single isomer, unassigned) [Cpd 308-En 2, N-(4-(hydroxymethyl)tetrahydro-2H-pyran-4-yl)-2-methyl-5-(1-phenylethoxy)benzofuran-3-carboxamide]
1000 to 20000 nM	Cc1oc2ccc(OCc3cccc(OC(F)(F)F)c3)cc2c1C(=O)N[C@H]1CCNC1 [Cpd 223, (S)-2-methyl-N-(pyrrolidin-3-yl)-5-((3-(trifluoromethoxy)benzyl)oxy)benzofuran-3-carboxamide]
